Laboratory results reported in patent US8741951B2, “Non-steroidal compounds for androgen receptor modulation” (CNR—Consiglio Nazionale delle Ricerche, priority 2009, dated 2014).
Entries after “also recorded” stand apart in the source; their conditions may differ. Like-named read-outs stand apart in the source and are kept apart here.

Experiments:
[1] = test system: LNCaP cells; experiment: SRB in vitro chemosensitivity assay, LNCaP; format: cell-based
Experimental: (§1) The cell lines were maintained as a monolayer at 37° C. and subcultured weekly. Culture medium was composed of RPMI 1640 supplemented with 10% fetal calf serum and 1% glutamine (Mascia Brunelli s.p.a., Milan, Italy). Cells were used in the exponential growth phase in all the experiments.
(§2) Compounds were dissolved in acetone or DMSO (AITES) ([…]) and stored at −20° C. The cell culture containing acetone at the highest concentration was used as the control.
(§3) Sulforhodamine B (SRB) assay was used according to the method by Skehan et al. (JNCI, 1990). Briefly, cells were collected by trypsinization, counted and plated at a density of 5,000 cells/well in 96-well flat-bottomed microtiter plates (100 μl of cell suspension/well). In the chemosensitivity assay, experiments were run in octuplicate, and each experiment was repeated three times. The optical density (OD) of cells was determined at a wavelength of 490 nm by a colorimetric plate reader.
(§4) If ODtreated is above ODzero, treatment has induced a cytostatic effect, whereas if ODtreated is below ODzero, cell killing has occurred. The ODzero depicts the cell number at the moment of drug addition, the ODcontrol reflects the cell number in untreated wells and the ODtreated reflects the cell number in treated wells on the day of the assay.
(§5) FIGS. 2-11 show the cytotoxic activity of the derivative compounds of the invention on the LNCaP and LNCaP-AR cell lines. The authors examined the antitumour activity of the compounds for which the synthesis is described above, in the hormone-sensitive prostate cancer cell line LNCaP and in its derivative cell line LNCaP-AR, expressing high level of AR and with hormone refractory prostate cancer (HRPC) features. The novel compounds were tested at the increasing concentrations of […], 0.2, 2.0, and 20.0 μM. The highest dose used was chosen on the basis of the clinically achievable peak plasma concentration reported in the literature for bicalutamide (Cockshott I D. Clin Pharmacokinet. 2004; 43(13): 855-78). After 144-hr exposure time the cytotoxic effect of the molecules was calculated according to the method of Monks et al. (Monks A, Scudiero D, Skehan P, et al. Feasibility of a high-flux anticancer drug screen using a diverse panel of cultured human tumor cell lines. J Natl Cancer Inst. 1991; 83: 757-66.)

[2] = test system: LNCaP-AR cells; experiment: SRB in vitro chemosensitivity assay, LNCaP-AR; format: cell-based; settings: for GI50: Homo sapiens, LNCaP/AR; for GI50 / cytotoxic effect (cytostatic / cytocidal), in words: 144 h; for LC50: LNCaP-AR cells, 144 h exposure; for LC50 / cytotoxic effect (cytostatic / cytocidal), in words: up to 20 μM; for cytotoxic effect (cytostatic / cytocidal), in words: LNCaP-AR
Experimental: as §1, §2, §3, §4, §5

[3] = test system: PC-3 cell line; experiment: SRB cytotoxicity, PC-3; format: cell-based, human; settings: PC-3 (no AR), 144 h, up to 20 μM
Experimental: (§6) FIGS. 16-25: cytotoxic effect of compounds (R)-XXIII-2, (R)-XXIII-3, (R)-XXIII-4, (R)-XXIII-5, (R)-XXIII-6, (R)-XXIII-7, (R)-XXIII-8, (R)-XXIII-9, (R)-XXIII-10, (R)-XXIV-9 on PC-3 and DU-145 cell lines at different concentration (0.02, 0.2, 2, 20 μM) after 144 h exposure. On the x-axis is reported the concentration, while on the y-axis is reported the inhibition of the net growth (% net growth).
as §3, §4

[4] = test system: DU145 cell line; experiment: SRB cytotoxicity, DU145; format: cell-based, human; settings: DU145 (no AR), 144 h, up to 20 μM
Experimental: as §6, §3, §4

[5] = test system: human hepatoblastoma cell line HepG2; experiment: Cytotoxic activity on HepG2 (hepato-toxicity); format: cell-based; settings: HepG2, up to highest concentration tested
Experimental: as §3, §4
FIG. 27-36 show the cytotoxic activity of the drugs on the human hepatoblastoma cell line HepG2. The authors evaluated in vitro the potential hepato-toxicity of some of the novel compounds on HepG2 cell line, a human hepatoblastoma cell line that retains the specialized function of normal hepatocytes [Knowles B B, Howe C C, Aden D P. Human hepatocellular carcinoma cell lines secretes the major plasma proteins and hepatitis B surface antigen. Science 1980, 209:497-499; Aden D P, Vogel A, Plortkin S, Damjanov I, Knowles B B. Controlled synthesis of HBS Ag in a differentiated human liver carcinoma-derived cell line. Nature, 1979, 282:615-616].

[6] = target: T1, human androgen receptor (hAR) (Homo sapiens, UniProt P10275); experiment: hAR transactivation assay (ARE-luc) in Cos-7 cells; format: cell-based; settings: for inhibition of R1881-induced AR transcriptional activation (antagonistic activity), in words: compound 10 μM with 10 nM R1881; for agonistic activity on AR transcription, in words: compound alone, 10 nM to 1 μM or 10 μM
T1 construct: expressed in transfected cells; host or cells: Cos-7
T1 sequence (P10275 1-920): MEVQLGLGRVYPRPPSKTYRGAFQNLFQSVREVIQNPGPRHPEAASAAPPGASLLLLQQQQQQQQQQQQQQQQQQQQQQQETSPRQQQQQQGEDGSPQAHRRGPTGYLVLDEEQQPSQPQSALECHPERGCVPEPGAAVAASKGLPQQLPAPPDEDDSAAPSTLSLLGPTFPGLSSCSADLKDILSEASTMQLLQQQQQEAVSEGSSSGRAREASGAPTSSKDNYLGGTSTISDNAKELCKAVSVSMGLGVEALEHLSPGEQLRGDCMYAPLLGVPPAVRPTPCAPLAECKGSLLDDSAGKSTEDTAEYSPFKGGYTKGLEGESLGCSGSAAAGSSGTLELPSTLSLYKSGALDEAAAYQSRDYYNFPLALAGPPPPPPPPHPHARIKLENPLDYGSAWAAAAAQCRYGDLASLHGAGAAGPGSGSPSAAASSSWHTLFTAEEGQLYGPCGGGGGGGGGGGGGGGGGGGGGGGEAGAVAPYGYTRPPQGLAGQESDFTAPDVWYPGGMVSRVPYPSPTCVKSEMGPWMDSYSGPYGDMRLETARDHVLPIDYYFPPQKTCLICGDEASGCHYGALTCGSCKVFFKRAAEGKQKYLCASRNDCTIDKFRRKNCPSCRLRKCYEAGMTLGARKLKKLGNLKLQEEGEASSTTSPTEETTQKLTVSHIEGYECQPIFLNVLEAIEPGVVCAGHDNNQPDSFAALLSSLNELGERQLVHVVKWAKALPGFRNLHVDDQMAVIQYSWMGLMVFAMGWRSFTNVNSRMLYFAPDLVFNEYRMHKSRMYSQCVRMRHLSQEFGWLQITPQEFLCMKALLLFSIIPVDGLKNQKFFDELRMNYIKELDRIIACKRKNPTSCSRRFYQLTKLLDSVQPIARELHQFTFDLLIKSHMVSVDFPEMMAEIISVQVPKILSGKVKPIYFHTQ
Text: The cDNA coding hAR was cloned into the pSG5 expression vector as reported previously [Chang, C. S., J. Kokontis, and S. T. Liao 1988 Molecular cloning of human and rat complementary DNA encoding androgen receptors Science 240:324-326].
The 3416 construct (ARE-Luc), containing four copies of the wild-type slp-HRE2 (5′-TGGTCAgccAGTTCT-3′) was cloned in the NheI site in pTK-TATA-Luc [Verrijdt, G., E. Schoenmakers, A. Haelens, B. Peeters, G. Verhoeven, W. Rombauts, and F. Claessens 2000 Change of specificity mutations in androgen selective enhancers J. Biol. Chem. 275:12298-12305].
For androgen-stimulated transcriptional analysis, 32×10^4 Cos-7 cells were plated in phenol red-free DMEM containing 5% charcoal-stripped serum. After 48 h, the cells were transfected by Superfect (Qiagen) with 0.3 μg of 3416-pTK-TATA-Luc construct, together with 1.5 μg of either pSG5-empty plasmid or pSG5-hAR expressing plasmid. […] When indicated, the synthetic compounds were added alone to the cell medium. […] It was dissolved in 0.001% (final concentration) ethanol. Control cells were treated with the vehicle alone. Lysates were prepared and the luciferase activity was measured using a luciferase assay system (Promega). The results were corrected using CH110-expressed beta-galactosidase activity (Amersham Biosciences) and luciferase activity was expressed as fold induction. Results were obtained from two or three different experiments, each performed in duplicate. Mean and SEM are shown.

[7] = LNCaP cells, 144 h exposure, up to 20 μM

Row | Structure (SMILES) | GI50 ([1]; Homo sapiens, LNCaP, 144 h) [µM] | LC50 [1, 7] | cytotoxic effect (cytostatic / cytocidal), in words ([1]; LNCaP, 144 h, up to 20 μM) | GI50 [2] [µM] | LC50 [2] | cytotoxic effect (cytostatic / cytocidal), in words [2] | cytotoxic activity, in words [3] | cytotoxic activity, in words [4] | hepato-toxicity, in words [5] | inhibition of R1881-induced AR transcriptional activation (antagonistic activity), in words [6] | LC50 ([1]; Homo sapiens, LNCaP, 144 h, read-out: LC50, LNCaP cells, 144 h exposure, up to 20 μM) [µM] | LC50 ([1]; read-out: LC50, LNCaP cells, 144 h exposure, up to 20 μM) [µM] | cytotoxic activity, in words ([3]; listed as (R)-XIII-5) | cytotoxic activity, in words ([4]; listed as (R)-XIII-5) | agonistic activity on AR transcription, in words [6]
1 | N#Cc1ccc(NC(=O)[C@](O)(Cc2ccc(F)cc2)CS(=O)(=O)c2ccc(F)cc2)cc1C(F)(F)F [(R)-XXIII-4] | 7 | n.r. | suppress completely the cell growth | 7.5 | n.r. | suppress completely the cell growth | negligible cytotoxic activity | negligible cytotoxic activity | did not display toxicity | A more pronounced inhibition |  |  |  |  | 
2 | N#Cc1ccc(NC(=O)[C@](O)(Cc2ccc(C(F)(F)F)cc2)CS(=O)(=O)c2ccc(F)cc2)cc1C(F)(F)F [(R)-XXIII-5] | 2 |  | cell killing activity | 1.9 | n.r. | cell killing activity |  |  | did not display toxicity | A more robust inhibition | 16.2 to 20 | 16.2 | negligible cytotoxic activity; also recorded: reduced cytotoxic propriety | negligible cytotoxic activity; also recorded: reduced cytotoxic propriety | do not exhibit agonistic activity
3 | N#Cc1ccc(NC(=O)[C@@](O)(CS(=O)(=O)c2ccc(F)cc2)c2ccccc2)cc1C(F)(F)F [(R)-XXIII-8] | 11.8 | n.r. | suppress completely the cell growth | 11.6 | n.r. | suppress completely the cell growth | negligible cytotoxic activity | negligible cytotoxic activity | did not display toxicity |  |  |  |  |  | does not increase the transcriptional activity of AR
